Measurements published in paper PMC6651341, “EDB-FN Targeted Peptide–Drug Conjugates for Use against Prostate Cancer” (International Journal of Molecular Sciences, 2019).
Values joined by “and” are separate entries in the source; they are usually repeats but may differ in a detail not shown here. Identical values can stand only once. Where a SMILES comes first, the peptide text is derived from it. Bridges are numbered along the chain shown (N, C = ends). [ ]: non-standard residue; d: D form. The star is where a group is joined. X1 = CC(=O)O[C@@]12CO[C@@H]1C[C@H](O)[C@@]1(C)C(=O)[C@H](O)C3=C(C)[C@@H](OC(=O)[C@H](OC(=O)CCNC(=O)C4CCC(CN5C(=O)CC(*)C5=O)CC4)[C@@H](NC(=O)OC(C)(C)C)c4ccccc4)C[C@@](O)([C@@H](OC(=O)c4ccccc4)[C@H]21)C3(C)C; Doxorubicin(Traut) = COc1cccc2c1C(=O)c1c(O)c3c(c(O)c1C2=O)C[C@@](O)(C(=O)CO)C[C@@H]3O[C@H]1C[C@H](NC(=N)CCCS*)[C@H](O)[C@H](C)O1; Ahx = NCCCCCC(=O)O

How the values were obtained:
[1] = test system: RWPE-1, PC3, LNCap, Du-145 cell lines; assay: MTS cell viability, range over four cell lines; format: cell-based, human; details: 5 µM, 72 h incubation
Source text: (§1) Human epithelial prostate cell line (RWPE-1, ATCC No. CRL-11610), human prostate cancer cell line (Human prostate carcinoma DU-145, ATCC No. HTB-81), human adenocarcinoma PC3, ATCC No. CRL-1435), androgen-sensitive human prostate adenocarcinoma cells (LNCaP, ATCC No. CRL-1740), and castration-resistant LNCaP-derived C4-2 (ATCC No. CRL-1595) were purchased from American Type Culture Collection (ATCC), Manassas, VA, USA. All the media, serum, and antibiotics were bought from American Type Culture Collection (ATCC) (Manassas, VA, USA) and Sigma life-science (St. Louis, MO, USA). Keratinocytes SFM (1×) with EGF + BPE was bought from Gibco life technologies (Thermo Fisher Scientific), Gaithersburg, MD, USA. CellTiter 96 was bought from Promega, Madison, WI, USA. Dithiothreitol (DTT) was bought from Thermo Fisher scientific, Carlsbad, CA, USA, and TGF-β was bought from Abcam, Boston, MA, USA.
(§2) Cell-proliferation assay using MTS reagent was conducted against five cell lines (RWPE-1, PC3, DU-145, LNCaP, and, C4-2). Cells were seeded into 96-well plates (5 × 10^3 cells for all the cells) and incubated with 100 µL of complete medium (RPMI-1640 for RWPE-1, DU-145, LNCaP, and C4-2; DMEM for PC3) overnight at 37 °C with 5% CO2. Various concentrations (0, 0.06, 0.6, 6, 60, 600 μM) of the peptide solution (20 μL) were added to cells to yield the final concentrations of peptide (0, 0.01, 0.1, 1, 10, 100 μM). The cells were kept in an incubator (37 °C, 5% CO2) for 24, 48, or 72 h accordingly for different treatment time responses. […] The absorbance was obtained at 490 nm using SpectraMax M2 microplate reader to detect the formazan product. […] The percentage of cell viability was calculated by [(OD value of cells treated with the test mixture of compounds) − (OD value of culture medium)] / [(OD value of control cells) − (OD value of culture medium)] × 100%. […] Cell viability was determined by measuring the absorbance at 490 nm using SpectraMax M2 microplate spectrophotometer, as mentioned above.

[2] = test system: C4-2 cells with TGF-β treatment (EDB-FN overexpression); assay: MTS cell viability of C4-2 cells treated with TGF-β to overexpress EDB-FN; format: cell-based, human; details: C4-2, TGF-β 10 ng/mL for 3 days; for decrease in cell viability in TGF-β treated cells as compared to untreated cells: after 72 h
Experimental: Cell-proliferation assay using MTS reagent was conducted against five cell lines (RWPE-1, PC3, DU-145, LNCaP, and, C4-2). Cells were seeded into 96-well plates (5 × 10^3 cells for all the cells) and incubated with 100 µL of complete medium (RPMI-1640 for RWPE-1, DU-145, LNCaP, and C4-2; DMEM for PC3) overnight at 37 °C with 5% CO2. Various concentrations (0, 0.06, 0.6, 6, 60, 600 μM) of the peptide solution (20 μL) were added to cells to yield the final concentrations of peptide (0, 0.01, 0.1, 1, 10, 100 μM). The cells were kept in an incubator (37 °C, 5% CO2) for 24, 48, or 72 h accordingly for different treatment time responses. Then, a CellTiter 96 aqueous solution (20 μL) was added to each well and incubated for 4 h under the same condition. The absorbance was obtained at 490 nm using SpectraMax M2 microplate reader to detect the formazan product. Wells containing cells in the absence of any peptide were used as a control. The percentage of cell viability was calculated by [(OD value of cells treated with the test mixture of compounds) − (OD value of culture medium)] / [(OD value of control cells) − (OD value of culture medium)] × 100%. […] Cell viability was determined by measuring the absorbance at 490 nm using SpectraMax M2 microplate spectrophotometer, as mentioned above.
To compare the cytotoxicity of compounds using treatment of TGF-β, the cells were culture, and 8000 cells (RPWE-1, PC3, DU-145, LNCap, and C4-2) were added in 120 μL per well with TGF-β treatment. Cells were exposed to TGF-β at 10 ng/mL for 3 days. Then cells were seeded in the corresponding medium (DMEM containing 10% FBS and 1% penicillin–streptomycin for DU-145, LNCaP, and PC3; keratinocyte containing 0.1% FBS without antibiotics for RWPE-1), 24 h prior to the experiment. Then, MTS assay was followed up, as mentioned in 3.5.1.

[3] = Stability under redox conditions with dithiothreitol (DTT); format: physicochemical; details: PBS pH 7.4, 12 equiv DTT (0.12 mM DTT, 0.010 mM peptide), analytical HPLC 214 nm, % remaining from AUC
Experimental: (§3) The stability of peptide–drug conjugate 13 was evaluated in the phosphate buffered saline (PBS). The pH of PBS was adjusted to 6.8, 7.0, 7.4 using HCl and NaOH as needed. In brief, 250 µL of 1 × PBS was mixed with 45 µL of 0.25 mM Dox-peptide conjugate 13. The mixture was incubated at 37 °C in a water bath covered with aluminum foil. An aliquot (40 µL) was removed at different time intervals, such as 4, 24, and 84 h and analyzed using analytical RP-HPLC at 490 nm. The percentage of the remained peptide was calculated using the area under the curve (AUC) by integrating the chromatogram in analytical HPLC. For evaluation of stability in DTT, a solution of DTT (0.120 mM) was prepared using PBS (pH 7.4). A solution of compounds (1, 8, and 13 at 1 mM) was prepared in PBS (pH = 7.4). A volume of 45 µL of the peptide was added to 2.250 mL of PBS in a UV-blocking glass vial. The glass vials were put under nitrogen and stirred using a small magnetic bead. A volume of DTT ([…], 12 equiv) was added to the solution, which was incubated with each peptide sample to obtain a working concentration of 0.12 mM DTT and 0.010 mM peptide. Aliquots of 200 µL were collected at different time intervals and analyzed using analytical HPLC vials (0 min was used as controls without DTT) after quenching the DTT with 10 µL of H2O (pH = 2). The aliquots were run on analytical HPLC with detection at 214 nm.

PC3 = assay: MTS cell viability assay, PC3; format: cell-based, human; details: PC3, 2 h incubation, 0.01-100 µM in 5% DMSO
Source text: as §1, §2

[4] = Stability in PBS at different pH; format: physicochemical; details: pH values ranging from 6.5 to 7.4 (method: 6.8, 7.0, 7.4), 37 °C, aliquots at 4, 24, 84 h, analytical RP-HPLC 490 nm, % remaining from AUC
Experimental: as §3

[5] = Stability in 25% human serum; format: in vitro ADME; details: 25% human serum in RPMI-1640, 37 °C, conjugate 125 µM, aliquots 2-120 min, methanol precipitation, analytical HPLC, trendline R^2 0.978, each point average of three readings
Experimental: The stability was performed using 25% human serum. 325 µL of RPMI-1640 media was incubated with 125 µL of human serum at 37 °C in a water bath. Then 50 µL of 125 µM of conjugate 13 was added to the RPMI and serum. The control experiment was performed without conjugate using an aqueous 5% DMSO. Several aliquots (55 µL) were removed at 2, 5, 10, 15, 30, 60, 90, and 120 min. The aliquots were added to 120 µL of cold methanol to precipitate the serum proteins with vigorous mixing using vortex and kept at ice for 10 min. Then, the samples were centrifuged at 17× g (13,300 rpm) for 10 min to get a pellet of the insoluble peptide. The supernatant was collected and analyzed on analytical HPLC, as mentioned before.

C4-2 = assay: MTS cell viability assay, C4-2 without TGF-β; format: cell-based, human; details: C4-2 without TGF-β, 24–72 h
Source text: as §1, §2

Human cathepsin B = target: T1, Human cathepsin B (Homo sapiens, UniProt P07858); assay: Hydrolysis with cathepsin B enzyme; format: in vitro ADME; details: activated human cathepsin B, 50 mM acetate buffer pH 5.0 with 1 mM EDTA, 8 µL of 1 mM conjugate per 200 µL, HPLC 214/490 nm and MALDI-TOF
T1 construct: purchased Athens Research Lot # CB2016-02 (a lot number; no catalogue number given)
Experimental: Human cathepsin B (CTSB, Lot # CB2016-02 from Athens Research, Athens, GA, USA) was used to hydrolyze the cathepsin linker GFLG in conjugated peptide 13. A stock solution of cathepsin B enzyme (0.434 µg/µL) was prepared using 50 mM acetate (pH 5.0) buffer with 1 mM EDTA. The activation buffer was separately prepared using 30 mM DTT and 15 mM EDTA in H2O. An aliquot of 2.25 µL of cathepsin B stock was activated with 5 µL of activation buffer for 15 min at room temperature then diluted with 1.185 mL of acetate buffer and aliquoted into different tubes with 200 µL each. Further 8 µL of 1 mM of conjugated peptide 13 was added to aliquots and incubated for various time intervals. Then, the reaction was quenched by boiling to denature cathepsin B for 10 min. A 400 µL of cold methanol was added to precipitate the proteins followed by centrifugation of sample 17× g (13,300 rpm) for 10 min. A supernatant (500 µL) was collected, evaporated, and reconstituted with 300 µL of HPLC solvent A (H2O with 0.1% TFA). The eluent fraction from HPLC was further collected and analyzed using MALDI-TOF mass spectrometry to confirm the hydrolysis of the conjugate.

| Compound | cell proliferation (cell viability), range over all four cell lines [1] | decrease in cell viability in TGF-β treated cells as compared to untreated cells [2] [%] | toxicity at or below 10 µM (PC3) | cytotoxicity compared to drug alone (C4-2) | also measured |
| --- | --- | --- | --- | --- | --- |
| CC(=O)O[C@@]12CO[C@@H]1C[C@H](O)[C@@]1(C)C(=O)[C@H](O)C3=C(C)[C@@H](OC(=O)[C@H](O)[C@@H](NC(=O)OC(C)(C)C)c4ccccc4)C[C@@](O)([C@@H](OC(=O)c4ccccc4)[C@H]21)C3(C)C [Doce, docetaxel, reference compound] | 54–61% | 16 |  |  |  |
| CC(C)[C@@H]1NC(=O)[C@H]([C@@H](C)O)NC(=O)[C@@H](N)CCCCNC(=O)CC[C@@H](C(N)=O)NC(=O)[C@H](CC(=O)O)NC(=O)[C@H](C)NC(=O)[C@H](CO)NC(=O)[C@H]([C@@H](C)O)NC(=O)[C@H](CCCNC(=N)N)NC1=O [compound 8] (H-KTVRTSADE-NH2; lactam 1-9) |  |  |  |  | half-life / stability under redox conditions (DTT) [3]: > 8 h and 8 h |
| COc1cccc2c1C(=O)c1c(O)c3c(c(O)c1C2=O)C[C@@](O)(C(=O)CO)C[C@@H]3O[C@H]1C[C@H](N)[C@H](O)[C@H](C)O1 [Dox, doxorubicin, reference compound] | 20–34% |  | no significant toxicity |  | effect of TGF-β treatment on cytotoxicity compared to TGF-β untreated cells [2]: no observed effect |
| COc1cccc2c1C(=O)c1c(O)c3c(c(O)c1C2=O)C[C@@](O)(C(=O)CO)C[C@@H]3O[C@H]1C[C@H](NC(=N)CCCSSC[C@H](N)C(=O)NCC(=O)N[C@@H](Cc2ccccc2)C(=O)N[C@@H](CC(C)C)C(=O)NCC(=O)NCCCCCC(=O)N[C@H]2CCCCNC(=O)CC[C@@H](C(N)=O)NC(=O)[C@H](CC(=O)O)NC(=O)[C@H](C)NC(=O)[C@H](CO)NC(=O)[C@H]([C@@H](C)O)NC(=O)[C@H](CCCNC(=N)N)NC(=O)[C@H](C(C)C)NC(=O)[C@H]([C@@H](C)O)NC2=O)[C@H](O)[C@H](C)O1 [compound 13] (H-C(Doxorubicin(Traut))GFLG[Ahx]KTVRTSADE-NH2; lactam 7-15) | 25–35% | 17 | no significant toxicity | less cytotoxic as compared to drug alone | half-life in PBS [4]: ~ 10 h; half-life at 12.5 µM [5]: ~11.8 min; time within which cathepsin B cleaves the GFLG linker / releases drug (Human cathepsin B): ≤ 5 min |
| CC(=O)O[C@@]12CO[C@@H]1C[C@H](O)[C@@]1(C)C(=O)[C@H](O)C3=C(C)[C@@H](OC(=O)[C@H](OC(=O)CCNC(=O)C4CCC(CN5C(=O)CC(SC[C@H](N)C(=O)NCC(=O)N[C@@H](Cc6ccccc6)C(=O)N[C@@H](CC(C)C)C(=O)NCC(=O)NCCCCCC(=O)N[C@H]6CCCCNC(=O)CC[C@@H](C(N)=O)NC(=O)[C@H](CC(=O)O)NC(=O)[C@H](C)NC(=O)[C@H](CO)NC(=O)[C@H]([C@@H](C)O)NC(=O)[C@H](CCCNC(=N)N)NC(=O)[C@H](C(C)C)NC(=O)[C@H]([C@@H](C)O)NC6=O)C5=O)CC4)[C@@H](NC(=O)OC(C)(C)C)c4ccccc4)C[C@@](O)([C@@H](OC(=O)c4ccccc4)[C@H]21)C3(C)C (stereo partly drawn) [compound 14] (H-C(X1)GFLG[Ahx]KTVRTSADE-NH2; lactam 7-15) |  | 10 |  | less cytotoxic as compared to drug alone |  |
